From a melting point compilation (Tetko et al.)

| SMILES | melting point [°C] |
| --- | --- |
| N#CC1CC(=O)N(c2ccccc2)C1 (stereo not drawn) | 138 to 140 |
| CN(c1ccccc1N)S(C)(=O)=O | 138 to 140 |
| O=C(O)CCc1ncc(-c2ccccc2Cl)o1 | 184 to 186 |
| Cc1nn2c(=S)nc3ccccc3c2[nH]1 | 291 to 293 |
| O=C(O)c1cccc(NC(=O)C2Cc3ccccc3O2)c1 (stereo not drawn) | 252 to 254 |
| O=C(O)C1CCCN(C(=O)Cc2ccc(F)cc2)C1 (stereo not drawn) | 122 to 124 |
| Cc1sc2ncnc(N)c2c1C | 257 to 259 |
| COC(=O)c1ccc(OCC#N)cc1 | 95 to 97 |
| NS(=O)(=O)c1ccc(C(=O)NCC(=O)O)cc1 | 192 to 194 |
| CC(C)(C)c1cccc(OCC(=O)O)c1 | 117 to 119 |
| O=c1[nH]c2c(Br)cccc2c(=O)o1 | 169 to 171 |
| Cc1sc2ccccc2c1S(=O)(=O)Cl | 117 to 119 |
| Cc1cn2cc(Br)cc(C)c2n1 | 109 to 111 |
| NCc1ccc(OCc2ccccc2)cc1 | 51 to 53 |
| COc1cccc(C2C(C(=O)O)CC(=O)N2C2CC2)c1 (stereo not drawn) | 179 to 181 |
| Cc1ccccc1-n1c(S)nnc1-c1ccncc1 | 280 to 282 |
| COc1ccccc1-n1c(C)nnc1SCC(=O)O | 169 to 171 |
| Cc1ccc(C)c(OCC(=O)NN)c1 | 153 to 155 |
| NCc1ccc(NC(=O)C(F)(F)F)cc1 | 106 to 108 |
| Cc1noc(C)c1CSCC(=O)O | 92 to 94 |
| O=C(O)C1Cc2cccc(F)c2O1 (stereo not drawn) | 126 to 128 |
| N#Cc1c(N)sc2c1-c1ccccc1CC2 | 166 to 168 |
| CC(=O)c1ccc(N)cc1Cl | 58 to 60 |
| O=C(CN1C(=O)CCC1=O)c1ccccc1F | 154 to 156 |

| SMILES | melting point [°C] |
| --- | --- |
| CC(C(=O)O)c1ccc2ccccc2c1 (stereo not drawn) | 120 to 122 |
| Fc1ccc(COc2cccc(N3CCNCC3)c2)cc1 | 84 to 86 |
| O=C(O)c1ccc(NC(=O)C2CC2)s1 | 205 to 207 |
| N#Cc1ccc(CC(N)=O)cc1 | 191 to 193 |
| COc1ccc(F)cc1C(C)N (stereo not drawn) | 74 to 76 |
| O=C(O)c1cc(C2CC2)nn1-c1ccccc1 | 138 to 140 |
| CNC(=O)NN | 103 to 105 |
| CC(C)C(=O)c1ccc2[nH]c(=O)oc2c1 | 188 to 190 |
| N#Cc1sc(-c2cccc(Cl)c2)cc1N | 190 to 192 |
| Cc1c(C(=O)O)cccc1S(N)(=O)=O | 218 to 220 |
| N#Cc1ccc(-c2nc(CCl)co2)cc1 | 132 to 134 |
| COC(=O)c1c[nH]c(C2CC2)n1 | 119 to 121 |
| CC1CCC(NC(=O)CN2CCNCC2)CC1 (stereo not drawn) | 120 to 122 |
| Cc1ccc(C)c(S(=O)(=O)Oc2ccccc2C(=O)O)c1 | 120 to 122 |
| O=[N+]([O-])c1ccc(NCC2CCCO2)c(F)c1 (stereo not drawn) | 68 to 70 |
| CCOC(=O)CC(=O)CN1C(=O)c2ccccc2S1(=O)=O | 104 to 106 |
| COc1ccccc1Nc1ccc([N+](=O)[O-])cc1N | 149 to 151 |
| O=C(O)c1cc(-c2ccco2)nc2ccccc12 | 209 to 211 |
| N#Cc1ccc(C(=O)NCC(=O)O)cc1 | 193 to 195 |
| Oc1c(Cl)c(F)nc(F)c1Cl | 102 to 104 |
| Cc1cccc([N+](=O)[O-])c1C(=O)n1ccnc1 | 104 to 106 |
| O=C(CN1CCCC(C(=O)O)C1)Nc1ccccc1 (stereo not drawn) | 100 to 102 |
| O=C(O)C1(c2c(Cl)cccc2Cl)CC1 | 216 to 218 |
| Nc1ncc(Cc2cccc(Br)c2)s1 | 105 to 107 |

| SMILES | melting point [°C] |
| --- | --- |
| CCC(C)C(=O)NCC(=O)O (stereo not drawn) | 101 to 104 |
| CNCCOc1ccc(OCc2ccccc2)cc1 | 44 to 46 |
| Cc1cc(NC(=O)CSCC(N)C(=O)O)no1 (stereo not drawn) | 204 to 206 |
| CC(=O)Nc1c[nH]c(C)c1C(=O)O | 183 to 185 |
| CN(C)c1ccc([N+](=O)[O-])c(O)c1 | 140 to 142 |
| Nn1c(=O)[nH]c2ccccc2c1=O | 297 to 299 |
| C1CCC(C2CCNCC2)CC1 | 73 to 75 |
| Cc1cc(C(=O)O)ccc1I | 218 to 220 |
| NC(=O)c1cnn2c(C(=O)O)ccnc12 | 199 to 201 |
| O=C(c1ccc(Br)cc1)N1CCc2ccccc21 | 123 to 125 |
| O=C(O)c1cc(F)cc2cccnc12 | 159 to 161 |
| CCOC(=O)Nc1c(F)cc(F)cc1C#C[Si](C)(C)C | 74 to 76 |
| O=C(O)C=Cc1ccc([N+](=O)[O-])o1 | 230 to 232 |
| O=C(O)CC1(CC(=O)Nc2nccs2)CCCCC1 | 175 to 177 |
| O=C(c1ccccc1)c1nccs1 | 40 to 42 |
| CCOc1cc(Br)c([N+](=O)[O-])cc1OCC | 62 to 64 |
| O=C(O)c1csc(Cc2ccc(F)cc2)n1 | 149 to 151 |
| Cc1cc(C)c(S(=O)(=O)Cl)cc1C(=O)O | 189 to 191 |
| O=C(O)c1cnn(-c2ccc(Cl)nn2)c1C(F)(F)F | 99 to 101 |
| NS(=O)(=O)c1ccc2[nH]c(=O)c(=O)[nH]c2c1 | 372 to 374 |
| NC(=O)c1cccc2cccnc12 | 168 to 170 |
| NCC(O)Cc1ccccc1 (stereo not drawn) | 67 to 69 |
| N#CCN1CCCC2CCCCC21 (stereo not drawn) | 42 to 44 |
| O=C(O)CCc1cncc(F)c1 | 165 to 167 |

| SMILES | melting point [°C] |
| --- | --- |
| CC(C)S(=O)(=O)Nc1ccc(C(=O)O)cc1 | 179 to 181 |
| CN(c1ccc(O)cc1)S(=O)(=O)c1ccc(F)cc1 | 152 to 154 |
| CNS(=O)(=O)c1cccc(S(=O)(=O)Cl)c1 | 98 to 100 |
| Nc1cccc(C(=O)Nc2ccccn2)c1 | 111 to 113 |
| NC(=O)Cn1ccc(=O)c2ccccc21 | 294 to 296 |
| CNC(=O)Cn1ccc2ccc(N)cc21 | 134 to 136 |
| O=c1[nH]cnc2scc(-c3ccc(F)cc3)c12 | 231 to 233 |
| COc1ccccc1C(C)CC(=O)O (stereo not drawn) | 50 to 52 |
| COc1cc(C=O)ccc1OCC(=O)c1ccc(Cl)c(Cl)c1 | 137 to 139 |
| CC(C)(C)OC(=O)n1ccc(N)n1 | 129 to 131 |
| CCOC(=O)c1ccc(C#N)c(S)n1 | 169 to 171 |
| Nc1cncnc1N1CCCC1 | 156 to 158 |
| Nc1nonc1C(=O)N1CCCC1 | 192 to 194 |
| O=Cc1ccc(-c2ccccc2F)o1 | 66 to 68 |
| NC(=O)c1sc2nc(C3CC3)cc(-c3ccccc3)c2c1N | 185 to 187 |
| O=C(O)c1ccccc1CSc1nc2ccccc2o1 | 175 to 177 |
| O=C(O)c1cccc(N2NC(=O)C3CC=CCC3C2=O)c1 (stereo not drawn) | 185 to 187 |
| Cc1cccc(-c2nn(-c3ccc(F)cc3)cc2C(=O)O)c1 | 168 to 170 |
| O=C(O)/C=C/c1ccc(OCc2ccccn2)cc1 | 210 to 212 |
| O=C(CCl)N1CCOC1=O | 53 to 55 |
| O=C(CCl)c1ccc(N2CCCC2=O)cc1 | 127 to 129 |
| O=S(=O)(Cl)c1ccc2c(c1)S(=O)(=O)CC2 | 128 to 130 |
| O=C(O)c1ncoc1-c1cccs1 | 200 to 202 |
| O=C(Nc1ccc(Cl)cn1)C1CCCNC1 (stereo not drawn) | 156 to 158 |

| SMILES | melting point [°C] |
| --- | --- |
| O=C(O)c1cc([N+](=O)[O-])cc(Cl)c1F | 180 to 182 |
| Cn1c(Cl)nc(Cl)c1C=O | 61 to 63 |
| Fc1cccc(-n2ccnc2)n1 | 87 to 89 |
| CCSc1ccc(CC(=O)O)cc1 | 74 to 76 |
| CC(C)Cc1ccc(C(=O)CCC(=O)O)cc1 | 113 to 115 |
| CCOc1ccc(OCc2ccc(C(=O)NN)cc2)cc1 | 127 to 129 |
| ClCc1ncc(-c2ccccc2)o1 | 63 to 65 |
| Cc1ccc(C(=O)O)cc1S(=O)(=O)Cl | 140 to 147 |
| O=C(O)[C@@H]1CCCN1C(=O)c1ccccn1 | 165 to 167 |
| CNCCC1CCN(C2CCN(C)CC2)CC1 | 48 to 50 |
| CC(=O)c1sc(-c2ccc(Br)cc2)nc1C | 103 to 105 |
| Nc1cccc(OCC(=O)N2CCCC2)c1 | 101 to 103 |
| Cc1ccc(N)cc1S(=O)(=O)Nc1ccc(SC(F)F)cc1 | 227 to 230 |
| O=C(O)Cc1cc(Cl)ccc1Cl | 101 to 103 |
| CC(C)c1ccc(C=CCC(=O)O)cc1 | 49 to 51 |
| NC(=O)C1CCCN1Cc1ccccc1N (stereo not drawn) | 121 to 123 |
| O=C(O)c1cc2c(OC(F)F)cccc2[nH]1 | 215 to 217 |
| CC(=O)NCCCc1ccc(C(=O)CCl)cc1 | 96 to 98 |
| Cc1cnc2c(c1)NCCN2 | 127 to 129 |
| Cc1ccc(Cl)c(S(=O)(=O)Cl)c1 | 49 to 51 |
| CCN1CCN(S(=O)(=O)c2cccc(N)c2)CC1 | 94 to 96 |
| NCc1ccc(-n2cnc3ccccc32)cc1 | 72 to 74 |
| OCCOc1cncc(Br)c1 | 51 to 53 |
| CCN(CC)S(=O)(=O)c1ccc(C)c(C(=O)O)c1 | 140 to 142 |

| SMILES | melting point [°C] |
| --- | --- |
| O=C(O)c1ccc(-c2ccc3c(c2)OCCO3)s1 | 204 to 206 |
| CS(=O)(=O)CCS(=O)(=O)Cl | 119 to 121 |
| O=C(O)CC(=O)NC1CC1 | 99 to 101 |
| Cn1c(C(C)(C)C)nc2cc(N)ccc21 | 164 to 166 |
| CC(=O)c1ccc(S(C)(=O)=O)c(F)c1 | 103 to 105 |
| O=C1OCCN1S(=O)(=O)Cl | 94 to 96 |
| O=C(O)c1csc(-c2ccccc2)c1 | 184 to 186 |
| O=C(CCl)Nc1cccc(Oc2ccccc2)c1 | 102 to 104 |
| CC1=NN(Cc2ccc(Cl)cc2Cl)C(=O)C1 | 128 to 130 |
| NC(=O)C1COCCN1 (stereo not drawn) | 168 to 170 |
| Cc1nn(-c2ccc(F)cc2)c2[nH]nc(N)c12 | 168 to 170 |
| N#CCc1c[nH]c2cc(Cl)ccc12 | 99 to 101 |
| Cc1cc(Cl)n2ncnc2c1 | 93 to 95 |
| CC(C)Cn1c(N)c(Br)c(=O)[nH]c1=O | 249 to 251 |
| COC(=O)C(Cc1c[nH]cn1)NC(C)=O (stereo not drawn) | 116 to 118 |
| OC(c1ccccc1)C1CCCCN1 (stereo not drawn) | 136 to 138 |
| CCOC(=O)C(NC(=O)C(C)C)C(=O)OCC | 75 to 77 |
| CCc1ccnc(C(=O)O)c1 | 109 to 111 |
| Cc1cn2c(C=O)c(C)nc2s1 | 153 to 155 |
| CC(C)(C)OC(=O)N1CCOCC1C#N (stereo not drawn) | 95 to 97 |
| CC(C)C1(C)NC(=O)NC1=O (stereo not drawn) | 176 to 178 |
| CCCc1noc2nc(-c3cccnc3)cc(C(=O)O)c12 | 259 to 261 |
| c1nc(N2CCNCC2)c2ccsc2n1 | 71 to 73 |
